Experimental data taken from publication PMC11748363, “Antimicrobial and Antiproliferative Properties of 2‐Phenyl‐N‐(Pyridin‐2‐yl)acetamides” (Chemical Biology & Drug Design, 2025).
Values after ≈ are worked out from the molar mass of the structure shown. Like-named read-outs stand apart in the source and are kept apart here.

Columns and labels:
[1] = test system: Candida parapsilosis CCM 8260, ATCC 22019; test: Antifungal microdilution broth MIC, CP; conditions: Lodderomyces parapsilosis
[2] = test system: Staphylococcus aureus subsp. aureus CCM 4750, ATCC 43300 (MRSA); test: Antibacterial microdilution broth MIC, MRSA; assay type: cell-based; conditions: Staphylococcus aureus
[3] = test system: Enterococcus faecalis CCM 4224, ATCC 29212; test: Antibacterial microdilution broth MIC, EF; assay type: cell-based
[4] = test system: Aspergillus fumigatus ATCC 204305; test: Antifungal microdilution broth MIC, AF
[5] = test system: Mycolicibacterium aurum DSM 43999; test: Antimycobacterial microdilution broth MIC (resazurin), M. aurum; assay type: cell-based; conditions: DSM43999, read-out: MIC M. aurum
[6] = test system: Staphylococcus epidermidis CCM 4418, ATCC 12228; test: Antibacterial microdilution broth MIC, SE; assay type: cell-based
[7] = test system: Candida tropicalis CCM 8264, ATCC 750; test: Antifungal microdilution broth MIC, CT
[8] = test system: Pseudomonas aeruginosa CCM 3955, ATCC 27853; test: Antibacterial microdilution broth MIC, PA; assay type: cell-based
[9] = test system: Aspergillus flavus CCM 8363; test: Antifungal microdilution broth MIC, AFla
[10] = test system: Mycolicibacterium smegmatis DSM 43465; test: Antimycobacterial microdilution broth MIC (resazurin), M. smegmatis; assay type: cell-based; conditions: DSM43465, read-out: MIC M. smegmatis
[11] = test system: Acinetobacter baumannii DSM 30007, ATCC 19606; test: Antibacterial microdilution broth MIC, ACI; assay type: cell-based
[12] = test system: Mycobacterium tuberculosis H37Ra; test: Antimycobacterial microdilution broth MIC (resazurin), Mtb H37Ra; assay type: cell-based; conditions: for MIC: Mycobacterium tuberculosis, H37RA, read-out: MIC Mtb H37Ra
[13] = test system: Klebsiella pneumoniae CCM 4415, ATCC 10031; test: Antibacterial microdilution broth MIC, KP
[14] = test system: Staphylococcus aureus CCM 4223, ATCC 29213; test: Antibacterial microdilution broth MIC, SA; assay type: cell-based; conditions: Staphylococcus aureus
[15] = test system: Escherichia coli CCM 3954, ATCC 25922; test: Antibacterial microdilution broth MIC, EC; assay type: cell-based
[16] = test system: Lichtheimia corymbifera CCM 8077; test: Antifungal microdilution broth MIC, LC
[17] = test system: Candida krusei CCM 8271, ATCC 6258; test: Antifungal microdilution broth MIC, CK; conditions: Pichia kudriavzevii
[18] = test system: Candida albicans CCM 8320, ATCC 24433; test: Antifungal microdilution broth MIC, CA
[19] = test system: Trichophyton interdigitale CCM 8377, ATCC 9533; test: Antifungal microdilution broth MIC, TI; conditions: Trichophyton interdigitale
HepG2 cell line = test: Cytotoxicity CellTiter 96, HepG2; assay type: cell-based, human; conditions: Homo sapiens, HepG2, 24 h, 24 h incubation; ^c compound precipitated in the testing medium; ^d over the limit of tested concentrations
Experimental: The cytotoxicity of final compounds was determined in human hepatocellular carcinoma cell line HepG2.
Cytotoxicity determination
Human hepatocellular liver carcinoma cell line HepG2 purchased from Health Protection Agency Culture Collections (ECACC, Salisbury, UK) was cultured in MEM (Minimum Essentials Eagle Medium, Sigma–Aldrich) supplemented with 10% fetal bovine serum (PAA Laboratories, Pasching, Austria), 1% L-glutamine solution (Sigma–Aldrich) and non-essential amino acid solution (Sigma–Aldrich) in a humidified atmosphere containing 5% CO2 at 37 °C. For subculturing, the cells were harvested after trypsin/EDTA (Sigma–Aldrich) treatment at 37 °C. To evaluate cytotoxicity, the cells treated with the tested substances were used as experimental groups whereas untreated HepG2 cells served as controls. The cells were seeded in density 10,000 cells per well in a 96 well plate. The next day the cells were treated with each of the tested substances dissolved in DMSO. The tested substances were
in triplicates according to their solubility. Simultaneously, the controls representing 100% cell viability, 0% cell viability (the cells treated with 10% DMSO), no cell control and vehiculum controls were also
the reagent from the kit CellTiter 96 AQueous One Solution Cell Proliferation Assay (CellTiter 96; PROMEGA, Fitchburg, USA) was added. After 2h incubation at 37 °C, absorbance of samples was recorded at 490 nm (TECAN, Infinita M200, Austria). A standard toxicological parameter IC50 was calculated by nonlinear regression from a semilogarithmic plot of incubation concentration versus percentage of absorbance relative to untre ated controls using GraphPad Prism 8 software.

[20] = ATCC204305, 24 h, read-out: MIC AF 24h
[21] = ATCC204305, 48 h, read-out: MIC AF 48h
[22] = CCM8363, 24 h, read-out: MIC AFla 24h
[23] = CCM8363, 48 h, read-out: MIC AFla 48h
[24] = CCM8077, 24 h, read-out: MIC LC 24h
[25] = CCM8077, 48 h, read-out: MIC LC 48h

With COc1cccc(CC(=O)Nc2ccc(Cl)cn2)c1 [Compound 8, 2-(3-methoxyphenyl)-N-(5-chloropyridin-2-yl)acetamide] the MIC ([1]; 24 h, read-out: MIC CP 24h) was > 500 µM, the MIC ([1]; 48 h, read-out: MIC CP 48h) was > 500 µM and the MIC ([2]; 24 h, read-out: MIC MRSA 24h) was > 500 µM. The MIC ([2]; 48 h, read-out: MIC MRSA 48h) was > 500 µM, the MIC ([3]; 24 h, read-out: MIC EF 24h) was > 500 µM and the MIC ([3]; 48 h, read-out: MIC EF 48h) was > 500 µM. For the same compound, the MIC [4, 20] was > 500 µM, the MIC [4, 21] was > 500 µM and the MIC [5] was > 500 mg/L. For the same compound, the MIC ([6]; 24 h, read-out: MIC SE 24h) was 250 µM (≈ 69.2 µg/mL), the MIC ([6]; 48 h, read-out: MIC SE 48h) was > 500 µM and the MIC ([7]; 24 h, read-out: MIC CT 24h) was > 500 µM. The MIC ([7]; 48 h, read-out: MIC CT 48h) was > 500 µM, the MIC ([8]; 24 h, read-out: MIC PA 24h) was > 500 µM and the MIC ([8]; 48 h, read-out: MIC PA 48h) was > 500 µM. The MIC [9, 22] was 500 µM (≈ 138 µg/mL), the MIC [9, 23] was 500 µM (≈ 138 µg/mL) and the MIC [10] was > 500 mg/L. The MIC ([11]; 24 h, read-out: MIC ACI 24h) was > 500 µM, the MIC ([11]; 48 h, read-out: MIC ACI 48h) was > 500 µM and the MIC ([12]; Calculated from MIC (μg/mL)) was 113 µM. The MIC [12] was 31.2 mg/L, the “SI (selectivity index)” value ([12]; SI = HepG2 IC50 (μM)/MIC MtbH37Ra (μM), calculated for compounds with MIC ≤ 31.25 μg/mL) was 1.4 and the “MIC KP 24h” value [13] was > 500 µM. For the same compound, the “MIC KP 48h” value [13] was > 500 µM, the MIC ([14]; 24 h, read-out: MIC SA 24h) was 500 µM (≈ 138 µg/mL) and the MIC ([14]; 48 h, read-out: MIC SA 48h) was > 500 µM. The MIC ([15]; 24 h, read-out: MIC EC 24h) was > 500 µM, the MIC ([15]; 48 h, read-out: MIC EC 48h) was > 500 µM and the MIC [16, 24] was 500 µM (≈ 138 µg/mL). It also gave an MIC [16, 25] of 500 µM (≈ 138 µg/mL), an MIC ([17]; 24 h, read-out: MIC CK 24h) of 500 µM (≈ 138 µg/mL) and an MIC ([17]; 48 h, read-out: MIC CK 48h) of 500 µM (≈ 138 µg/mL). The MIC ([18]; 24 h, read-out: MIC CA 24h) was > 500 µM, the MIC ([18]; 48 h, read-out: MIC CA 48h) was > 500 µM and the MIC ([19]; 72 h, read-out: MIC TI 72h) was 500 µM (≈ 138 µg/mL). The MIC ([19]; 120 h, read-out: MIC TI 120h) was 500 µM (≈ 138 µg/mL) and the IC50 (HepG2 cell line) was 158 µM.

With COc1cccc(CC(=O)Nc2cccc(Cl)n2)c1 [Compound 9, 2-(3-methoxyphenyl)-N-(6-chloropyridin-2-yl)acetamide] the MIC ([1]; 24 h, read-out: MIC CP 24h) was 500 µM (≈ 138 µg/mL), the MIC ([1]; 48 h, read-out: MIC CP 48h) was 500 µM (≈ 138 µg/mL) and the MIC ([2]; 24 h, read-out: MIC MRSA 24h) was > 500 µM. For the same compound, the MIC ([2]; 48 h, read-out: MIC MRSA 48h) was > 500 µM, the MIC ([3]; 24 h, read-out: MIC EF 24h) was > 500 µM and the MIC ([3]; 48 h, read-out: MIC EF 48h) was > 500 µM. For the same compound, the MIC [4, 20] was 500 µM (≈ 138 µg/mL), the MIC [4, 21] was > 500 µM and the MIC [5] was > 500 mg/L. The MIC ([6]; 24 h, read-out: MIC SE 24h) was > 500 µM, the MIC ([6]; 48 h, read-out: MIC SE 48h) was > 500 µM and the MIC ([7]; 24 h, read-out: MIC CT 24h) was 500 µM (≈ 138 µg/mL). For the same compound, the MIC ([7]; 48 h, read-out: MIC CT 48h) was 500 µM (≈ 138 µg/mL), the MIC ([8]; 24 h, read-out: MIC PA 24h) was > 500 µM and the MIC ([8]; 48 h, read-out: MIC PA 48h) was > 500 µM. For the same compound, the MIC [9, 22] was 500 µM (≈ 138 µg/mL), the MIC [9, 23] was > 500 µM and the MIC [10] was 125 mg/L (≈ 452 µM). For the same compound, the MIC ([11]; 24 h, read-out: MIC ACI 24h) was > 500 µM, the MIC ([11]; 48 h, read-out: MIC ACI 48h) was > 500 µM and the MIC ([12]; Calculated from MIC (μg/mL)) was 900 µM. The MIC [12] was 250 mg/L, the “MIC KP 24h” value [13] was > 500 µM and the “MIC KP 48h” value [13] was > 500 µM. For the same compound, the MIC ([14]; 24 h, read-out: MIC SA 24h) was > 500 µM, the MIC ([14]; 48 h, read-out: MIC SA 48h) was > 500 µM and the MIC ([15]; 24 h, read-out: MIC EC 24h) was > 500 µM. For the same compound, the MIC ([15]; 48 h, read-out: MIC EC 48h) was > 500 µM, the MIC [16, 24] was 500 µM (≈ 138 µg/mL) and the MIC [16, 25] was > 500 µM. The MIC ([17]; 24 h, read-out: MIC CK 24h) was 500 µM (≈ 138 µg/mL), the MIC ([17]; 48 h, read-out: MIC CK 48h) was 500 µM (≈ 138 µg/mL) and the MIC ([18]; 24 h, read-out: MIC CA 24h) was 500 µM (≈ 138 µg/mL). The MIC ([18]; 48 h, read-out: MIC CA 48h) was 500 µM (≈ 138 µg/mL), the MIC ([19]; 72 h, read-out: MIC TI 72h) was 500 µM (≈ 138 µg/mL) and the MIC ([19]; 120 h, read-out: MIC TI 120h) was > 500 µM. The IC50 (HepG2 cell line) was 638 µM.

COc1ccc(CC(=O)Nc2ccccn2)cc1 [Compound 10, 2-(4-methoxyphenyl)-N-(pyridin-2-yl)acetamide] was tested, and the MIC ([1]; 24 h, read-out: MIC CP 24h) was > 500 µM, the MIC ([1]; 48 h, read-out: MIC CP 48h) was > 500 µM and the MIC ([2]; 24 h, read-out: MIC MRSA 24h) was > 500 µM. The MIC ([2]; 48 h, read-out: MIC MRSA 48h) was > 500 µM, the MIC ([3]; 24 h, read-out: MIC EF 24h) was > 500 µM and the MIC ([3]; 48 h, read-out: MIC EF 48h) was > 500 µM. For the same compound, the MIC [4, 20] was > 500 µM, the MIC [4, 21] was > 500 µM and the MIC [5] was 250 mg/L (≈ 1030 µM). For the same compound, the MIC ([6]; 24 h, read-out: MIC SE 24h) was 500 µM (≈ 121 µg/mL), the MIC ([6]; 48 h, read-out: MIC SE 48h) was 500 µM (≈ 121 µg/mL) and the MIC ([7]; 24 h, read-out: MIC CT 24h) was > 500 µM. For the same compound, the MIC ([7]; 48 h, read-out: MIC CT 48h) was > 500 µM, the MIC ([8]; 24 h, read-out: MIC PA 24h) was > 500 µM and the MIC ([8]; 48 h, read-out: MIC PA 48h) was > 500 µM. For the same compound, the MIC [9, 22] was > 500 µM, the MIC [9, 23] was > 500 µM and the MIC [10] was 62.5 mg/L (≈ 258 µM). For the same compound, the MIC ([11]; 24 h, read-out: MIC ACI 24h) was > 500 µM, the MIC ([11]; 48 h, read-out: MIC ACI 48h) was > 500 µM and the MIC ([12]; Calculated from MIC (μg/mL)) was 516 µM. For the same compound, the MIC [12] was 125 mg/L, the “MIC KP 24h” value [13] was > 500 µM and the “MIC KP 48h” value [13] was > 500 µM. The MIC ([14]; 24 h, read-out: MIC SA 24h) was > 500 µM, the MIC ([14]; 48 h, read-out: MIC SA 48h) was > 500 µM and the MIC ([15]; 24 h, read-out: MIC EC 24h) was > 500 µM. For the same compound, the MIC ([15]; 48 h, read-out: MIC EC 48h) was > 500 µM, the MIC [16, 24] was > 500 µM and the MIC [16, 25] was > 500 µM. For the same compound, the MIC ([17]; 24 h, read-out: MIC CK 24h) was 500 µM (≈ 121 µg/mL), the MIC ([17]; 48 h, read-out: MIC CK 48h) was 500 µM (≈ 121 µg/mL) and the MIC ([18]; 24 h, read-out: MIC CA 24h) was > 500 µM. For the same compound, the MIC ([18]; 48 h, read-out: MIC CA 48h) was > 500 µM, the MIC ([19]; 72 h, read-out: MIC TI 72h) was 500 µM (≈ 121 µg/mL) and the MIC ([19]; 120 h, read-out: MIC TI 120h) was 500 µM (≈ 121 µg/mL). For the same compound, the IC50 (HepG2 cell line) was > 1000 µM.
